Experimental data published in patent publication US9212381B2, “Methods and compositions for labeling polypeptides” (President and Fellows of Harvard College, priority 2011, dated 2015).
Entries after “also recorded” stand apart in the source; their conditions may differ.

Assays:
[1] = test system: Cells; details: Beatty et al. 2002; cited from earlier work
[2] = test system: protein translation in rabbit reticulocyte lysates; assay: in vitro translation of 35S-Met-labeled GFP-SuFu in rabbit reticulocyte lysates, SDS-PAGE and autoradiography; format: biochemical; details: for inhibition of protein translation in vitro: varying concentrations, 1 hour at 30° C.
Procedure: (§1) A plasmid carrying a GFP fusion of the mouse Suppressor of Fused (SuFu) gene under the control of an SP6 RNA polymerase promoter was used to generate 35[S]-Met-labeled GFP-SuFu by in vitro translation in rabbit reticulocyte lysates (TNT SP6 Quick coupled transcription/translation kit, Promega), according to the manufacturer's instructions. Translation reactions were performed for 1 hour at 30° C., in the absence or presence of varying concentrations of puro and OP-puro. The reactions were stopped by addition of SDS-PAGE sample buffer with 50 mM DTT and boiling. Equal amounts of lysate were separated by SDS-PAGE and the amount of in vitro translated GFP-SuFu was determined by autoradiography.
as §1, with “^35S-Met-labeled” for “35[S]-Met-labeled”, “AE-puro (azido-puromycin, FIG. 5A).” for “OP-puro.”

[3] = test system: human embryonic kidney 293T cells; assay: translation inhibition in cells: 35S-Met bulk protein translation, SDS-PAGE and autoradiography; format: cell-based
Procedure: To measure translation inhibition in cells, human embryonic kidney 293T cells were pre-incubated for 30 minutes with varying concentrations of puro or OP-puro, in complete media. The cells were then incubated for 3 hours in Met-free media supplemented with 35[S]-Met (from Perkin-Elmer, at 100 microCi/mL final concentration), in the continued presence of varying concentrations of puro or OP-puro. The cells were harvested, lyzed in TBS with 1% Triton X-100 and protease inhibitors (Complete tablets, Roche), and centrifuged for 15 minutes at 20,000 g in a refrigerated centrifuge. The clarified cells lysates were analyzed by SDS-PAGE, followed by autoradiography, to measure bulk protein translation.

[4] = test system: nascent proteins in mouse tissues; assay: imaging of protein synthesis in whole animals with OP-puro, CuAAC with TMR-azide; format: in vivo
Procedure: One hundred microliters of a 20 mM solution of OP-puro in PBS were injected intraperitoneally into a 3-week old mouse, while a mouse injected with 100 microliters of PBS was used as negative control. Various organs were harvested after one hour and were fixed in formalin overnight. Organ fragments were embedded in paraffin, sectioned, and washed with xylene to remove the paraffin. After washing with ethanol and rehydration in TBS, the tissue sections were stained with 20 microM tetramethylrhodamine(TMR)-azide, as described (Salic et al., Proc. Natl. Acad. Sci. USA 105(7):2415-2420 (2008)). The tissue sections were counterstained with Hoechst, mounted in standard mounting media and were then imaged by fluorescence microscopy and DIC.

[5] = test system: NIH-3T3 cells; assay: OP-puro labeling of cultured cells, CuAAC with Alexa568-azide, fluorescence microscopy; format: cell-based
Procedure: NIH-3T3 cells were grown on glass coverslips in Dulbecco modified Eagle's medium (DMEM) supplemented with 10% bovine calf serum, penicillin and streptomycin. OP-puro was added to cells in complete culture medium. After incubation for the desired amount of time, the cells were washed with PBS and then fixed with cold methanol for 2 minutes at −20° C. The cells were washed with TBS (10 mM Tris pH 7.5, 150 mM NaCl), permeabilized with TBST (TBS with 0.2% Triton X-100), and then washed with TBS again. CuAAC detection of OP-puro incorporated into nascent protein was performed by reacting the fixed cells for 30 minutes at room temperature with 20 μM Alexa568-azide, as described (Salic et al., Proc. Natl. Acad. Sci. USA 105(7):2415-2420 (2008)). Cu(I) was generated in situ from CuSO4 and ascorbic acid. After staining, the coverslips were washed several times with TBST, counterstained with Hoechst, and mounted in standard mounting media. The stained cells were imaged by DIC and by epi-fluorescence microscopy on a Nikon TE2000U microscope equipped with an OrcaER camera (Hammamatsu), and 20× PlanApo 0.75 NA and 40× PlanApo 0.95 NA air objectives (Nikon). Images were collected using Metamorph image acquisition software (Applied Precision).
To determine if protein synthesis is required for OP-puro incorporation into nascent polypeptides, cells were incubated with OP-puro, in the presence or absence of 50 micrograms/mL cycloheximide (CHX), added to the cells 15 minutes before OP-puro. This concentration of CHX was determined to completely block protein translation in cells.
To determine the effect of inhibiting the proteasome on the stability of OP-puro-conjugated polypeptide chains, cells were pulse-labeled with 50 microM OP-puro for 15 minutes and were then incubated in complete media supplemented with 50 micrograms/mL CHX (to block further incorporation of OP-puro into nascent proteins), in the presence or absence of 5 microM of the proteasome inhibitor bortezomib. Cells were fixed at the indicated times and were stained in parallel with Alexa568-azide. Two negative controls were used: 1) untreated cells; and 2) cells pre-incubated with 50 micrograms/mL CHX for 15 minutes, followed by incubation with 50 microM OP-puro and 50 micrograms/mL CHX for another 15 minutes.

[6] = test system: Human 293T cells; assay: affinity purification of nascent polypeptide-OP-puro conjugates (CuAAC with biotin azide, beads, autoradiography); format: cell-based; details: 25 microM OP-puro, 1 hour, FIG. 1E
Procedure: Human 293T cells were labeled for 1 hour in Met-free DMEM supplemented with 10% dialyzed fetal bovine serum and 35[S]-Met (100 microCi/mL final). The cells were then incubated in the same media, in the presence of 10 microM puro, 25 microM OP-puro or 25 microM OP-puro and 50 micrograms/mL CHX, for an additional 1 hour. The cells were harvested, washed with ice cold PBS and then lyzed on ice in 100 mM Tris pH 8.5 with 1% Triton-X10 and protease inhibitors. The lysates were clarified by centrifugation for 15 minutes at 20,000 g and 4° C., and were then subjected to CuAAC with biotin azide for 30 minutes at room temperature. The final concentrations in the CuAAC reaction were: 100 microM biotin azide, 1 mM CuSO4 and 50 mM ascorbic acid (added last to the lysates). Biotinylated proteins were diluted in binding buffer (20 mM Tris pH 8, 500 mM NaCl, 1% Triton-X100) and were bound to Neutravidin beads (Pierce). After extensive washes with binding buffer, bound proteins were eluted, separated by SDS-PAGE and detected by autoradiography.

SMILES: [N-]=[N+]=NCC[C@H](N)C(=O)O [Aha, azidohomoalanine]
- factor by which cells prefer Met over the analog [1]: about 500

SMILES: CN(C)c1ncnc2c1ncn2[C@@H]1O[C@H](CO)[C@@H](NC(=O)[C@@H](N)Cc2ccc(OCCN=[N+]=[N-])cc2)[C@H]1O [AE-puro, (S)-2-Amino-3-(4-(2-azidoethoxy)phenyl)-N-((2S,3S,4R,5R)-5-(6-(dimethylamino)-9H-purin-9-yl)-4-hydroxy-2(hydroxymethyl)tetrahydrofuran-3-yl)propanamide]
- potency of protein synthesis inhibition compared with unmodified puromycin ([2]; reticulocyte lysates, FIG. 5B): equal to that of unmodified puromycin
- inhibition of protein translation in vitro [2]: inhibits protein synthesis in a dose-dependent manner

SMILES: C#CCOc1ccc(C[C@H](N)C(=O)N[C@H]2[C@@H](O)[C@H](n3cnc4c(N(C)C)ncnc43)O[C@@H]2CO)cc1 [OP-puro, (S)-2-Amino-N-((2S,3S,4R,5R)-5-(6-(dimethylamino)-9H-purin-9-yl)-4-hydroxy-2-(hydroxymethyl)tetrahydrofuran-3-yl)-3-(4-(prop-2-yn-1-yloxy)phenyl)propanamide]
- concentration that blocked protein synthesis almost completely ([3]; cell type not stated at the place): 25 µM
- potency of protein synthesis inhibition, fold lower than that of unmodified puro ([3]; cultured cells, FIG. 1D): 2-3 fold
- OP-puro incorporation into nascent proteins in tissues ([4]; 100 microliters 20 mM intraperitoneally, organs harvested after 1 hour): specific patterns of OP-puro incorporation into nascent proteins
- OP-puro staining pattern, small intestine ([4]; intraperitoneal, 1 hour, FIG. 3A/3B): strongest in cells in the crypts and at the base of intestinal villi; also recorded: stains strongly the cells in the crypts (particularly Paneth cells) and the cells at the base of the villi
- OP-puro staining, muscle ([4]; intraperitoneal, 1 hour, FIG. 3C): striking striated pattern; also recorded: Sarcomeres are strongly stained
- OP-puro staining, liver ([4]; intraperitoneal, 1 hour, FIG. 4A): strongest in hepatocytes; also recorded: stains strongly all hepatocytes
- OP-puro staining, spleen ([4]; intraperitoneal, 1 hour, FIG. 4C): strongest OP-puro signal is found at the organ's periphery, under the capsule
- fluorescent signal versus OP-puro concentration ([5]; 1 hour incubation, Alexa568-azide, FIG. 2A): specific fluorescent signal proportional to the concentration of OP-puro; also recorded: proportional to the concentration of added OP-puro
- cytoplasmic OP-puro signal at later time points ([5]; 3 hour image of FIG. 2B): significantly decreased
- incubation time after which a strong signal was seen ([5]; FIG. 2B): 15 min
- concentration sufficient to completely block protein synthesis ([5]; stated in legend of FIG. 2B): 50 µM
- formation of conjugates with nascent polypeptide chains [6]: formed conjugates with 35[S]-Met-labeled nascent polypeptide chains
- potency of protein synthesis inhibition, fold lower than that of unmodified puro ([2]; reticulocyte lysates, FIG. 1C): 2-3 fold
- inhibition of protein translation in vitro [2]: inhibits protein synthesis in a dose-dependent manner

SMILES: C[C@@H]1C[C@@H]([C@H](O)CC2CC(=O)NC(=O)C2)C(=O)[C@@H](C)C1 [CHX, cycloheximide, reference compound]
- effect on OP-puro incorporation / conjugate formation ([5]; CHX 50 micrograms/mL): abolished; also recorded: do not form
- concentration determined to completely block protein translation in cells ([5]; added 15 minutes before OP-puro): 50 micrograms/mL

SMILES: CC(C)C[C@H](NC(=O)[C@H](Cc1ccccc1)NC(=O)c1cnccn1)B(O)O [bortezomib, reference compound]
- effect on stability of OP-puro conjugates ([5]; 5 microM bortezomib in chase, FIG. 2C): become stable; also recorded: completely stabilized

SMILES: C#CCCC(N)C(=O)O (stereo not drawn) [Hpg, homopropargylglycine]
- factor by which cells prefer Met over the analog [1]: about 500
